In US10179771B2 (GALAPAGOS NV, priority 2014, dated 2019) one finds IC50 data, which are given here for 20 molecules.

The target of assay [1] is T1, Recombinant human TYK2 catalytic domain (Homo sapiens, UniProt P29597).
T1 construct: Recombinant human TYK2 catalytic domain (amino acids 871-1187; catalog number 08-147); purchased Carna biosciences 08-147
T1 sequence (P29597 871-1187): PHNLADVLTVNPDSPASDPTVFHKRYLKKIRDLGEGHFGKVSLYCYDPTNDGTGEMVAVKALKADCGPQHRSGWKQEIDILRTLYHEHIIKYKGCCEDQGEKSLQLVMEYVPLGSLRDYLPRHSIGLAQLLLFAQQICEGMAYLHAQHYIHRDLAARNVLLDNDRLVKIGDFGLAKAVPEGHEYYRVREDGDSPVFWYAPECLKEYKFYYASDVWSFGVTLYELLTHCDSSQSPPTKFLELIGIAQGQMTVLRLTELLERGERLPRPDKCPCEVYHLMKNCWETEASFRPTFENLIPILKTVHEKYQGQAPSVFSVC
Description: TYK2 inhibition assay. It counts as biochemical. The following applies: Illustrative Compounds of the invention (Table XI). As to the method: Recombinant human TYK2 catalytic domain (amino acids 871-1187; catalog number 08-147) was purchased from Carna biosciences. 5 ng of TYK2 was incubated with 12.5 μg polyGT substrate (Sigma catalog number P0275) in kinase reaction buffer (25 mM Hepes pH 7.2, 50 mM NaCl, 0.5 mM EDTA, 1 mM DTT, 5 mM MnCl2, 10 mM MgCl2, 0.1% Brij-35, 0.1 μM non-radioactive ATP, 0.125 μCi ^33P-gamma-ATP (GE Healthcare, catalog number AH9968) final concentrations) with or without 5 μL containing test compound or vehicle (DMSO, 1% final concentration), in a total volume of 25 μL, in a polypropylene 96-well plate (Greiner, V-bottom). After 90 min at 30° C., reactions were stopped by adding 25 μL/well of 150 mM phosphoric acid. All of the terminated kinase reaction was transferred to prewashed (75 mM phosphoric acid) 96 well filter plates (Perkin Elmer catalog number 6005177) using a cell harvester (Perkin Elmer). Plates were washed 6 times with 300 μL per well of a 75 mM phosphoric acid solution and the bottom of the plates was sealed. 40 μL/well of Microscint-20 was added, the top of the plates was sealed and readout was performed using the Topcount (Perkin Elmer). Kinase activity was calculated by subtracting counts per min (cpm) obtained in the presence of a positive control inhibitor (10 μM staurosporine) from cpm obtained in the presence of vehicle. The ability of a test compound to inhibit this activity was determined as: Percentage inhibition=((cpm determined for sample with test compound present−cpm determined for sample with positive control inhibitor) divided by (cpm determined in the presence of vehicle−cpm determined for sample with positive control inhibitor))*100.
Dose dilution series were prepared for the compounds enabling the testing of dose-response effects in the TYK2 assay and the calculation of the IC50 for each compound. Each compound was routinely tested at concentration of 20 μM followed by a 1/3 serial dilution, 8 points (20 μM-6.67 μM-2.22 μM-740 nM-247 nM-82 nM-27 nM-9 nM) in a final concentration of 1% DMSO. When potency of compound series increased, more dilutions were prepared and/or the top concentration was lowered (e.g. 5 μM, 1 μM).

Assay [2] deals with T2, Recombinant human JAK3 catalytic domain (Homo sapiens, UniProt P52333).
T2 construct: Recombinant human JAK3 catalytic domain (amino acids 781-1124; catalog number PV3855); purchased Invitrogen PV3855
T2 sequence (P52333 781-1124): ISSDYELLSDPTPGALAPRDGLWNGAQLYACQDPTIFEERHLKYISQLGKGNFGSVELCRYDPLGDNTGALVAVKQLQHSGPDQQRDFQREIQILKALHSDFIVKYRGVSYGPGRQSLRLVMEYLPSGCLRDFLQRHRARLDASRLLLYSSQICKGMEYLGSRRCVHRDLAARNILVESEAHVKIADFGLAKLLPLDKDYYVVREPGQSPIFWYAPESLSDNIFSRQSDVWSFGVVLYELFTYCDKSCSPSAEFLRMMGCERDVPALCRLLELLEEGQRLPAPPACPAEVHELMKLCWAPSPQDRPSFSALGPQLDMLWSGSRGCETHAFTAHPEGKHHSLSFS
Description: JAK3 inhibition assay. The format is biochemical. The following applies: Illustrative Compounds of the invention (Table IX). As to the method:
Recombinant human JAK3 catalytic domain (amino acids 781-1124; catalog number PV3855) was purchased from Invitrogen. 0.5 ng JAK3 protein was incubated with 2.5 μg polyGT substrate (Sigma catalog number P0275) in kinase reaction buffer (25 mM Tris pH 7.5, 0.5 mM EGTA, 10 mM MgCl2, 2.5 mM DTT, 0.5 mM Na3VO4, 5 mM b-glycerolphosphate, 0.01% Triton X-100, 1 μM non-radioactive ATP, […] ^33P-gamma-ATP (GE Healthcare, catalog number AH9968) final concentrations) with or without 5 μL containing test compound or vehicle (DMSO, 1% final concentration), in a total volume of 25 μL, in a polypropylene 96-well plate (Greiner, V-bottom). After 45 min at 30° C., reactions were stopped by adding 25 μL/well of 150 mM phosphoric acid. All of the terminated kinase reaction was transferred to prewashed (75 mM phosphoric acid) 96 well filter plates (Perkin Elmer catalog number 6005177) using a cell harvester (Perkin Elmer). Plates were washed 6 times with 300 μL per well of a 75 mM phosphoric acid solution and the bottom of the plates was sealed. 40 μL/well of Microscint-20 was added, the top of the plates was sealed and readout was performed using the Topcount (Perkin Elmer). Kinase activity was calculated by subtracting counts per min (cpm) obtained in the presence of a positive control inhibitor (10 μM staurosporine) from cpm obtained in the presence of vehicle. The ability of a test compound to inhibit this activity was determined as:
[formula] • RFU test compound=RFU determined for sample with test compound present • RFU control=RFU determined for sample with positive control inhibitor • RFU vehicle=RFU determined in the presence of vehicle
Dose dilution series were prepared for the compounds enabling the testing of dose-response effects in the JAK3 assay and the calculation of the IC50 for each compound. Each compound was routinely tested at concentration of 20 μM followed by a 1/5 serial dilution, 10 points in a final concentration of 1% DMSO. When potency of compound series increased, more dilutions were prepared and/or the top concentration was lowered (e.g. 5 μM, 1 μM).

The IC50 is the concentration at which inhibition is half-maximal.

Consider `CCc1cc(C#N)ncc1Oc1cc(NC(=O)[C@H]2C[C@H]2F)c2ncn(C)c2c1` [Cpd 6, (1R,2R)-N-[6-[(6-cyano-4-ethyl-3-pyridyl)oxy]-1-methyl-benzimidazol-4-yl]-2-fluoro-cyclopropanecarboxamide], for which the half-inhibitory concentration (IC50) was 0.1 to 50 nM in assay [1] and above 500 nM in assay [2].

On to `CCc1cc(S(C)(=O)=O)ncc1Oc1cc(NC(=O)C2CC2)c2ncn(C)c2c1` [Cpd 29, N-[6-[(4-ethyl-6-methylsulfonyl-3-pyridyl)oxy]-1-methyl-benzimidazol-4-yl]cyclopropanecarboxamide], for which the IC50 was 100 to 500 nM in assay [1] and above 500 nM in assay [2].

For `CCS(=O)(=O)c1ccc(N(C)c2cc(NC(=O)[C@H]3C[C@H]3F)c3ncn(C)c3c2)c(C)c1` [Cpd 27, (1R,2R)-N-[6-(4-ethylsulfonyl-N,2-dimethyl-anilino)-1-methyl-benzimidazol-4-yl]-2-fluoro-cyclopropanecarboxamide], the 50% inhibitory concentration (IC50) in assay [1] lay in the range of 0.1 to 50 nM; in assay [2] it was 100 to 500 nM.

Take `Cc1cc(S(C)(=O)=O)cc(F)c1N(C)c1cc(NC(=O)C2CC2)c2ncn(C)c2c1` [Cpd 19, N-[6-(2-fluoro-N,6-dimethyl-4-methylsulfonyl-anilino)-1-methyl-benzimidazol-4-yl]cyclopropanecarboxamide]: the IC50 in assay [1] is 0.1 to 50 nM; in assay [2], 50 to 100 nM.

For the molecule `Cc1cc(C#N)ncc1Oc1cc(N)c2ncn(C)c2c1` [Cpd 28, 5-(7-amino-3-methyl-benzimidazol-5-yl)oxy-4-methyl-pyridine-2-carbonitrile], the IC50 in assay [1] is 100 to 500 nM; in assay [2], above 500 nM.

With `Cc1cc(C#N)ncc1Oc1cc(NC(=O)NC(C)C)c2ncn(C)c2c1` [Cpd 38, 1-[6-[(6-cyano-4-methyl-3-pyridyl)oxy]-1-methyl-benzimidazol-4-yl]-3-isopropyl-urea], the IC50 in assay [1] was 100 to 500 nM; in assay [2], above 500 nM.

For `CCc1cc(C(N)=O)ncc1N(C)c1cc(NC(=O)C2CC2)c2ncn(C)c2c1` [Cpd 24, 5-((4-(cyclopropanecarboxamido)-1-methyl-1H-benzo[d]imidazol-6-yl)(methyl)amino)-4-ethylpicolinamide], the values for the IC50 in assay [1] and in assay [2] were 0.1 to 50 nM and 100 to 500 nM, respectively.

For `Cc1cnc(C#N)c(F)c1N(C)c1cc(NC(=O)[C@H]2C[C@H]2F)c2ncn(C)c2c1` [Cpd 22, (1R,2R)-N-[6-[(2-cyano-3-fluoro-5-methyl-4-pyridyl)-methyl-amino]-1-methyl-benzimidazol-4-yl]-2-fluoro-cyclopropanecarboxamide], the half-inhibitory concentration (IC50) in assay [1] fell in the range of 0.1 to 50 nM; in assay [2], 100 to 500 nM.

Take `Cc1cc(C#N)ncc1Oc1cc(NC(=O)C2CC2)c2ncn(C)c2c1` [Cpd 23, N-[6-[(6-cyano-4-methyl-3-pyridyl)oxy]-1-methyl-benzimidazol-4-yl]cyclopropanecarboxamide]: the figures for the concentration for half-maximal inhibition (IC50) in assay [1] and in assay [2] were 0.1 to 50 nM and above 500 nM, respectively.

As to `CCc1cc(S(C)(=O)=O)ncc1N(C)c1cc(NC(=O)C2CC2)c2ncn(C)c2c1` [Cpd 18, N-[6-[(4-ethyl-6-methylsulfonyl-3-pyridyl)-methyl-amino]-1-methyl-benzimidazol-4-yl]cyclopropanecarboxamide], the IC50 is 0.1 to 50 nM in assay [1] and 100 to 500 nM in assay [2].

Take `Cc1cc(C(N)=O)ncc1Oc1cc(NC(=O)[C@H]2C[C@H]2F)c2ncn(C)c2c1` [Cpd 32, 5-[7-[[(1R,2R)-2-fluorocyclopropanecarbonyl]amino]-3-methyl-benzimidazol-5-yl]oxy-4-methyl-pyridine-2-carboxamide]: the half-maximal inhibitory concentration (IC50) in assay [1] is 50 to 100 nM; in assay [2], above 500 nM.

Turning to `CCc1cc(C#N)ncc1N(C)c1cc(NC(=O)OC)c2ncn(C)c2c1` [Cpd 4, methyl 6-((6-cyano-4-ethylpyridin-3-yl)(methyl)amino)-1-methyl-1H-benzo[d]imidazol-4-ylcarbamate], the half-inhibitory concentration (IC50) in assay [1] was 0.1 to 50 nM; in assay [2], 100 to 500 nM.

As to `CCc1cc(C#N)ccc1Oc1cc(NC(=O)[C@H]2C[C@H]2F)c2ncn(C)c2c1` [Cpd 10, (1R,2R)-N-[6-(4-cyano-2-ethyl-phenoxy)-1-methyl-benzimidazol-4-yl]-2-fluoro-cyclopropanecarboxamide], the results for the half-inhibitory concentration (IC50) in assay [1] and in assay [2] were 0.1 to 50 nM and 100 to 500 nM, respectively.

For the molecule `CN(c1cc(NC(=O)[C@H]2C[C@H]2F)c2ncn(C)c2c1)c1ccc(C#N)nc1F` [Cpd 14, (1R,2R)-N-[6-[(6-cyano-2-fluoro-3-pyridyl)-methyl-amino]-1-methyl-benzimidazol-4-yl]-2-fluoro-cyclopropanecarboxamide], the results for the IC50 in assay [1] and in assay [2] were 0.1 to 50 nM and 100 to 500 nM, respectively.

`CCc1cc(C#N)cc(F)c1Nc1cc(NC(=O)C2CC2)c2ncn(C)c2c1` [Cpd 2, N-(6-(4-cyano-2-ethyl-6-fluorophenylamino)-1-methyl-1H-benzo[d]imidazol-4-yl)cyclopropanecarboxamide]: the half-maximal inhibitory concentration (IC50) in assay [1] and in assay [2] was 0.1 to 50 nM in each case.

On to `Cc1cc(S(C)(=O)=O)cc(F)c1N(C)c1cc(NC(=O)[C@H]2C[C@H]2F)c2ncn(C)c2c1` [Cpd 16, (1R,2R)-2-fluoro-N-[6-(2-fluoro-N,6-dimethyl-4-methylsulfonyl-anilino)-1-methyl-benzimidazol-4-yl]cyclopropanecarboxamide], for which the concentration for half-maximal inhibition (IC50) in assay [1] was 0.1 to 50 nM; in assay [2], 50 to 100 nM.

Turning to `CN(c1cc(NC(=O)[C@H]2C[C@H]2F)c2ncn(C)c2c1)c1c(F)cc(C#N)cc1Cl` [Cpd 11, (1R,2R)-N-[6-(2-chloro-4-cyano-6-fluoro-N-methyl-anilino)-1-methyl-benzimidazol-4-yl]-2-fluoro-cyclopropanecarboxamide], the IC50 lay within 0.1 to 50 nM in assay [1] and 100 to 500 nM in assay [2].

Consider `CN(c1cc(NC(=O)[C@H]2C[C@H]2F)c2ncn(C)c2c1)c1ccc(F)nc1F` [Cpd 13, (1R,2R)-N-[6-[(2,6-difluoro-3-pyridyl)-methyl-amino]-1-methyl-benzimidazol-4-yl]-2-fluoro-cyclopropanecarboxamide], for which the 50% inhibitory concentration (IC50) is 0.1 to 50 nM in assay [1] and above 500 nM in assay [2].

As for `CCc1cc(C#N)ncc1N(C)c1cc(NC(=O)[C@H]2C[C@H]2F)c2ncn(C)c2c1` [Cpd 8, (1R,2R)-N-(6-((6-cyano-4-ethylpyridin-3-yl)(methyl)amino)-1-methyl-1H-benzo[d]imidazol-4-yl)-2-fluorocyclopropanecarboxamide], the 50% inhibitory concentration (IC50) in assay [1] lay in the range of 0.1 to 50 nM; in assay [2] it was 100 to 500 nM.

For the molecule `Cc1cc(C#N)ncc1Oc1cc(N(C)C)c2ncn(C)c2c1` [Cpd 35, 5-[7-(dimethylamino)-3-methyl-benzimidazol-5-yl]oxy-4-methyl-pyridine-2-carbonitrile], the IC50 in assay [1] and in assay [2] was above 500 nM in each case.
